Assay results: patent publication US6815465B1, “Heterocyclic compounds inhibiting angiogenesis” (IVAX International GmbH, priority 1999, dated 2004)

What was measured:
[1] = system: Lewis lung adenocarcinoma; experiment: Lewis lung adenocarcinoma metastasis model; assay type: in vivo; conditions: for inhibition of the increase of micrometastases: one fifth of the toxic dose
[2] = system: mouse colon adenocarcinoma cells transplanted into the spleen; experiment: Colon 38 spleen-liver metastasis model; assay type: in vivo; conditions: subtoxic administration
From the text: 2. In a colon 38 spleen-liver model [Dong, Z. et al., J. Natl. Cancer Inst.

[3] = system: ECV 304 endothelial cells; experiment: Examination of endothelial capillary formation; assay type: cell-based; conditions: for selectivity index: inhibits the capillary formation better than the cell proliferation, in relation to the borrelidin: ECV 304, from ratios of concentrations inhibiting cell proliferation in 50% and capillary formation, relative to borrelidin
Protocol: Basal membrane protein gel prepared from murine EHS tumor, which induces capillary formation, was put onto ECV 304 endothelial cells. The treatment with the borrelidin and the novel borrelidin derivatives of general formula (I) according to the invention was carried out in the same way as in case of the examination of cell proliferation. The extent by which the cells take part in the capillary formation was examined microscopically and by the aid of a morphometrical program, and the thus-obtained data were expressed in percent of the untreated control.
Namely, it has been stated that, relating to borrelidin, the cell-proliferation-inhibiting effect of the novel derivatives of general formula (I) definitely decreases whereas the capillary-formation-inhibiting effect changes only in a small degree or not at all. The relative degree of selectivity was determined for each compound by […] the ratios of the active agent concentrations that inhibit the cell proliferation in 50% and which inhibit the capillary formation.

[4] = system: cell lines WiDr of human colon cancer; conditions: cited from earlier work
[5] = system: PC-3 of human prostate cancer; conditions: cited from earlier work
[6] = system: cells forming capillary tubules; conditions: cited from earlier work
[7] = in vivo; cited from earlier work

## CC1CC(C)CC(C)C(O)CC(=O)OC(C2CCCC2C(=O)NCc2cccnc2)C(C#N)=CC=CCC(O)C(C)C1 (stereo not drawn) [Example 15, Borrelidin-3-picolylamide]
[1]; intraperitoneal administration
  inhibition of the increase of micrometastases: inhibited very considerably
[1]; per os administration
  inhibition of the increase of micrometastases: inhibited very considerably
[2]
  metastasis-forming ability of mouse colon adenocarcinoma cells transplanted into the spleen: considerably decreased

## CC1CC(C)CC(C)C(O)C(C#N)=CC=CCC(C2CCCC2C(=O)OCCc2ccccn2)OC(=O)CC(O)C(C)C1 (stereo not drawn) [Example 2, Borrelidin-2-(2-pyridyl)-ethyl ester]
[3]
  selectivity index: inhibits the capillary formation better than the cell proliferation, in relation to the borrelidin: 7.5 times

## CC1CC(C)CC(C)C(O)C(C#N)=CC=CCC(C2CCCC2C(=O)NCCN2CCOCC2)OC(=O)CC(O)C(C)C1 (stereo not drawn) [Example 4, Borrelidin 2-morpholinoethyl amide]
[3]
  selectivity index: inhibits the capillary formation better than the cell proliferation, in relation to the borrelidin: 6 times

## C[C@@H]1C[C@H](C)C[C@H](C)[C@@H](O)CC(=O)O[C@H]([C@@H]2CCC[C@H]2C(=O)O)C/C=C/C=C(/C#N)[C@H](O)[C@@H](C)C1 [borrelidin, 2′-(7-cyano-8,16-dihydroxy-9,11,13,15-tetramethyl-18-oxo-oxacyclooctadeca-4,6-dien-2-yl)-cyclopentane-1′-carboxylic acid]
[3]; endothelial cells
  difference in sensitivity of proliferation and capillary formation by the endothelial cells, in favour of capillary formation: about a five fold difference
[1]; Lewis lung adenocarcinoma model
  inhibition of the propagation of metastatic nodules formed after removing the primary tumour in lung: inhibited in a very small degree
[4]
  effectiveness against cell line: effective
[5]
  effectiveness against cell line: effective
[6]
  angiogenesis-inhibiting effect: induces the apoptosis of the cells forming capillary tubules
[7]
  LD50 value: medium

## C[C@@H]1C[C@H](C)C[C@H](C)[C@@H](O)CC(=O)O[C@H]([C@@H]2CCC[C@H]2C(=O)OCCN2CCOCC2)C/C=C/C=C(/C#N)[C@H](O)[C@@H](C)C1 [Example 1, Borrelidin-2-morpholinoethyl ester]
[3]
  selectivity index: inhibits the capillary formation better than the cell proliferation, in relation to the borrelidin: 60 times
